Data from ChEMBL document CHEMBL5523757, “Discovery, Synthesis, and Activity Evaluation of Novel Five-Membered Sulfur-Containing Heterocyclic Nucleosides as Potential Anticancer Agents In Vitro and In Vivo” (J Med Chem, 2024).

Columns and labels:
[1] = Acute toxicity in BALB/c mouse assessed as animal survival at 200 mg/kg,ip observed after 14 days; type: organism-based; conditions: in vivo, time 14 day
[2] = Acute toxicity in female BALB/c mouse assessed as animal death at 200 to 600 mg/kg,ip observed after 2 day; type: organism-based; conditions: in vivo, 48 h, dose 200-600 mg/kg
[3] = Acute toxicity in male BALB/c mouse assessed as animal death at 200 to 600 mg/kg,ip observed after 2 day; type: organism-based; conditions: in vivo, 48 h, dose 200-600 mg/kg
HeLa [4] = assay: Antiproliferative activity against human HeLa cells assessed as inhibition of cell growth incubated for 48 hrs by CCK-8 assay; type: functional, cell-based; conditions: hela
HCT-116 = assay: Antiproliferative activity against human HCT-116 cells assessed as inhibition of cell growth incubated for 48 hrs by CCK-8 assay; type: functional, cell-based; conditions: Homo sapiens, HCT-116, 48 h
[5] = Toxicity in BALB/c mouse xenografted with human HeLa cells assessed as change in body weight at 15 to 60 mg/kg,ip once daily for 14 days; type: organism-based; conditions: in vivo, 336 h, dose 15-60 mg/kg, time 14 day
[6] = Toxicity in BALB/c mouse xenografted with human HeLa cells assessed as histopathological change in kidney at 15 to 60 mg/kg,ip once daily for 14 days by hematoxylin and eosin staining analysis; type: organism-based; conditions: in vivo, 336 h, dose 15-60 mg/kg, time 14 day
[7] = Acute toxicity in female BALB/c mouse assessed as animal death at 200 to 1000 mg/kg,ip observed after 3 days; type: organism-based; conditions: in vivo, 72 h, dose 200-1000 mg/kg, time 3 day
[8] = Half life in BALB/c mouse plasma at 10 to 200 uM; type: ADME, cell-free; conditions: dose 10-200 µM
PANC-1 = assay: Antiproliferative activity against human PANC-1 cells assessed as inhibition of cell growth incubated for 48 hrs by CCK-8 assay; type: functional, cell-based; conditions: panc-1
[9] = Toxicity in BALB/c mouse xenografted with human HeLa cells assessed as histopathological change in lung at 15 to 60 mg/kg,ip once daily for 14 days by hematoxylin and eosin staining analysis; type: organism-based; conditions: in vivo, 336 h, dose 15-60 mg/kg, time 14 day
[10] = Toxicity in BALB/c mouse xenografted with human HeLa cells assessed as histopathological change in heart at 15 to 60 mg/kg,ip once daily for 14 days by hematoxylin and eosin staining analysis; type: organism-based; conditions: in vivo, 336 h, dose 15-60 mg/kg, time 14 day
[11] = Acute toxicity in female BALB/c mouse assessed as animal death at 1000 mg/kg,ip observed after 2 day; type: organism-based; conditions: in vivo, 48 h
HepG2 = assay: Antiproliferative activity against human HepG2 cells assessed as inhibition of cell growth incubated for 48 hrs by CCK-8 assay; type: functional, cell-based; conditions: Homo sapiens, HepG2, 48 h
A549 = assay: Antiproliferative activity against human A549 cells assessed as inhibition of cell growth incubated for 48 hrs by CCK-8 assay; type: functional, cell-based; conditions: Homo sapiens, A549, 48 h
[12] = Acute toxicity in female BALB/c mouse assessed as animal death at 200 to 400 mg/kg,ip observed after 1 day; type: organism-based; conditions: in vivo, 24 h, dose 200-400 mg/kg
MCF7 = assay: Antiproliferative activity against human MCF7 cells assessed as inhibition of cell growth incubated for 48 hrs by CCK-8 assay; type: functional, cell-based; conditions: Homo sapiens, MCF7, 48 h
[13] = Acute toxicity in male BALB/c mouse assessed as animal death at 200 to 1000 mg/kg,ip observed after 3 days; type: organism-based; conditions: in vivo, 72 h, dose 200-1000 mg/kg, time 3 day
[14] = Acute toxicity in male BALB/c mouse assessed as animal death at 200 to 400 mg/kg,ip observed after 1 day; type: organism-based; conditions: in vivo, 24 h, dose 200-400 mg/kg
HeLa [15] = assay: Induction of apoptosis in human HeLa cells at 2 to 8 uM incubated for 48 hrs by annexin V-FITC/PI staining based flow cytometry relative to control; type: functional; conditions: dose 2-8 µM
[16] = Acute toxicity in BALB/c mouse assessed as animal survival at 400 mg/kg,ip observed after 14 days; type: organism-based; conditions: in vivo, time 14 day
[17] = Acute toxicity in female BALB/c mouse assessed as animal death at 200 to 1000 mg/kg,ip observed for 4 to 15 days; type: organism-based; conditions: in vivo, dose lower 200 mg/kg, time lower 4 day, dose upper 1000 mg/kg, time upper 15 day
[18] = Acute toxicity in BALB/c mouse assessed as animal survival at 600 mg/kg,ip observed after 14 days; type: organism-based; conditions: in vivo, time 14 day
[19] = Acute toxicity in BALB/c mouse assessed as lethal dose at ip administration observed after 14 days; type: organism-based; conditions: in vivo, time 14 day
[20] = Acute toxicity in BALB/c mouse assessed as animal survival at 1000 mg/kg,ip observed after 14 days; type: organism-based; conditions: in vivo, time 14 day
[21] = Toxicity in BALB/c mouse xenografted with human HeLa cells assessed as histopathological change in spleen at 15 to 60 mg/kg,ip once daily for 14 days by hematoxylin and eosin staining analysis; type: organism-based; conditions: in vivo, 336 h, dose 15-60 mg/kg, time 14 day
[22] = Acute toxicity in BALB/c mouse assessed as animal survival at 800 mg/kg,ip observed after 14 days; type: organism-based; conditions: in vivo, time 14 day
[23] = Toxicity in BALB/c mouse xenografted with human HeLa cells assessed as histopathological change in liver at 15 to 60 mg/kg,ip once daily for 14 days by hematoxylin and eosin staining analysis; type: organism-based; conditions: in vivo, 336 h, dose 15-60 mg/kg, time 14 day
[24] = Acute toxicity in male BALB/c mouse assessed as animal death at 200 to 1000 mg/kg,ip observed for 4 to 15 days; type: organism-based; conditions: in vivo, dose lower 200 mg/kg, time lower 4 day, dose upper 1000 mg/kg, time upper 15 day

Compound: CCOC(=O)C[C@H]1CSC[C@]1(C(=O)OCC)n1cnc2c(Cl)nc(Cl)nc21 (racemic)
- survival at 336 h [1]: 100%
- Activity [2]: Non-Toxic
- Activity [3]: Non-Toxic
- IC50 (HeLa [4]): 2.8 µM
- IC50 (HCT-116): 3.82 µM
- Activity [5]: Non-Toxic
- Activity [6]: Non-Toxic
- Activity [7]: Non-Toxic
- half-life at up to 200 µM [8]: 3 h
- IC50 (PANC-1): 13 µM
- Activity [9]: Non-Toxic
- Activity [10]: Non-Toxic
- Activity [11]: Non-Toxic
- IC50 (HepG2): 32.7 µM
- IC50 (A549): 46 µM
- Activity [12]: Non-Toxic
- IC50 (MCF7): 5.54 µM
- Activity [13]: Non-Toxic
- Activity [14]: Non-Toxic
- Activity (HeLa [15]): 8.05%
- survival at 336 h [16]: 100%
- Activity [17]: Non-Toxic
- survival at 336 h [18]: 50%
- LD50 at 336 h [19]: 613 mg/kg
- survival at 336 h [20]: 0%
- Activity [21]: Non-Toxic
- survival at 336 h [22]: 10%
- Activity [23]: Non-Toxic
- Activity [24]: Non-Toxic
